# Reference: paper PMC11266321 (EJNMMI Radiopharmacy and Chemistry, 2024)
# Several values for one entry are separate records, joined by “and”; a condition that tells them apart may be missing. Equal entries are not always repeated.
# Key:
# Adenosine A1 = biological target: T1, Adenosine A1 (Homo sapiens, UniProt P30542); test: Radioligand binding inhibition, Adenosine A1; conditions: 10 µM; radioligand [^3H]DPCPX; mean of duplicate
# T1 construct: Sekisui Medical (contract laboratory)
# Experimental: (§1) Interaction of MMP with 28 binding sites was examined, including major classes of neurotransmitter receptor, uptake system, and ion channels (Sekisui Medical, Naka, Japan). MMP was tested in all assays at 10 µM. […] Each determination was made in duplicate.
# (§2) Test substance concentration : 10 µM, positive substance concentration : 10 µM
# (§3) Data are expressed as the mean values of duplicate samples.
# (§4) The % inhibition was calculated from “100 – binding ratio”.
# (§5) Binding ratio: [(B - N) / (B0 - N)] × 100 (%)
# (§6) B: Bound radioactivity in the presence of test substance and positive substance (individual value)
# (§7) B0: Total bound radioactivity in the absence of test substance and positive substance (mean value)
# (§8) N: Non-specific bound radioactivity (mean value)
# Adenosine A2 = biological target: T2, Adenosine A2 (Homo sapiens, UniProt P29274); test: Radioligand binding inhibition, Adenosine A2; conditions: 10 µM; radioligand [^3H]CGS21680; mean of duplicate
# T2 construct: Sekisui Medical (contract laboratory)
# T2 sequence (P29274 whole entry): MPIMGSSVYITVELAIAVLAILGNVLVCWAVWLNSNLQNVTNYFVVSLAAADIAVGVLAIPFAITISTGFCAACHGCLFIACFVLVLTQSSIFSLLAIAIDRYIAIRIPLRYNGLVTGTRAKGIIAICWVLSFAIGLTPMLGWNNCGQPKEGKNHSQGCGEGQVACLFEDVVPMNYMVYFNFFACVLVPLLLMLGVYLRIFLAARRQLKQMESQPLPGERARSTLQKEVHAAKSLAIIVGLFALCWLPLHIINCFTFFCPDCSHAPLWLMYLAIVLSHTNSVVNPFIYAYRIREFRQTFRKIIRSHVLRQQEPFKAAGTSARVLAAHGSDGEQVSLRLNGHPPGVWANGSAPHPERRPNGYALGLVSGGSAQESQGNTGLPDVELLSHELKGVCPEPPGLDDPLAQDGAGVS
# Experimental: as §1, §2, §3, §4, §5, §6, §7, §8
# [1] = test system: α1-Adrenergic (non-selective); test: Radioligand binding inhibition, α1-Adrenergic; conditions: 10 µM; radioligand [^3H]Prazosin; mean of duplicate
# [2] = test system: α2-Adrenergic (non-selective); test: Radioligand binding inhibition, α2-Adrenergic; conditions: 10 µM; radioligand [^3H]Rauwolscine; mean of duplicate
# Experimental: (§9) Interaction of MMP with 28 binding sites was examined, including major classes of neurotransmitter receptor, uptake system, and ion channels (Sekisui Medical, Naka, Japan). MMP was tested in all assays at 10 µM. […] 10.2.3 (GraphPad Software, San Diego, CA). Each determination was made in duplicate.
# as §2, §3, §4, §5, §6, §7, §8
# [3] = test system: β-Adrenergic (non-selective); test: Radioligand binding inhibition, β-Adrenergic; conditions: 10 µM; radioligand [^3H]DHA; mean of duplicate
# Experimental: as §9, §2, §3, §4, §5, §6, §7, §8
# Dopamine D1 = biological target: T3, Dopamine D1 (Homo sapiens, UniProt P21728); test: Radioligand binding inhibition, Dopamine D1; conditions: 10 µM; radioligand [^3H]SCH23390; mean of duplicate
# T3 construct: Sekisui Medical (contract laboratory)
# T3 sequence (P21728 whole entry): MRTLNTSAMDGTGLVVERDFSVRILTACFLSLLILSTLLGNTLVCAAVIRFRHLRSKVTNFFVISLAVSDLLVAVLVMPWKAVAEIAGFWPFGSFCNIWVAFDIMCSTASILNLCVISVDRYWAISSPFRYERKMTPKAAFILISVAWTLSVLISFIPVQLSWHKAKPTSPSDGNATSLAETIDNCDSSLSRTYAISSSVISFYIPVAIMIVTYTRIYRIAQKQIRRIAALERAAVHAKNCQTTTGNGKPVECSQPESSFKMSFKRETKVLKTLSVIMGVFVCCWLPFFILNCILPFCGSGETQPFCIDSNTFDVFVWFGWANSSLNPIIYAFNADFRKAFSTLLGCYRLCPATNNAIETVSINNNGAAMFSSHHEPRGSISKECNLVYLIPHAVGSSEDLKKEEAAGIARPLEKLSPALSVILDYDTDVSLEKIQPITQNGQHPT
# Experimental: as §1, §2, §3, §4, §5, §6, §7, §8
# GABA A (BZ central) = test: Radioligand binding inhibition, GABA A BZ central; conditions: 10 µM; radioligand [^3H]Flunitrazepam; mean of duplicate
# Experimental: as §9, §2, §3, §4, §5, §6, §7, §8
# GABA B = biological target: T4, GABA B (Homo sapiens, UniProt Q9UBS5); test: Radioligand binding inhibition, GABA B; conditions: 10 µM; radioligand [^3H]GABA; mean of duplicate
# T4 construct: Sekisui Medical (contract laboratory)
# T4 sequence (Q9UBS5 15-961 limits assumed): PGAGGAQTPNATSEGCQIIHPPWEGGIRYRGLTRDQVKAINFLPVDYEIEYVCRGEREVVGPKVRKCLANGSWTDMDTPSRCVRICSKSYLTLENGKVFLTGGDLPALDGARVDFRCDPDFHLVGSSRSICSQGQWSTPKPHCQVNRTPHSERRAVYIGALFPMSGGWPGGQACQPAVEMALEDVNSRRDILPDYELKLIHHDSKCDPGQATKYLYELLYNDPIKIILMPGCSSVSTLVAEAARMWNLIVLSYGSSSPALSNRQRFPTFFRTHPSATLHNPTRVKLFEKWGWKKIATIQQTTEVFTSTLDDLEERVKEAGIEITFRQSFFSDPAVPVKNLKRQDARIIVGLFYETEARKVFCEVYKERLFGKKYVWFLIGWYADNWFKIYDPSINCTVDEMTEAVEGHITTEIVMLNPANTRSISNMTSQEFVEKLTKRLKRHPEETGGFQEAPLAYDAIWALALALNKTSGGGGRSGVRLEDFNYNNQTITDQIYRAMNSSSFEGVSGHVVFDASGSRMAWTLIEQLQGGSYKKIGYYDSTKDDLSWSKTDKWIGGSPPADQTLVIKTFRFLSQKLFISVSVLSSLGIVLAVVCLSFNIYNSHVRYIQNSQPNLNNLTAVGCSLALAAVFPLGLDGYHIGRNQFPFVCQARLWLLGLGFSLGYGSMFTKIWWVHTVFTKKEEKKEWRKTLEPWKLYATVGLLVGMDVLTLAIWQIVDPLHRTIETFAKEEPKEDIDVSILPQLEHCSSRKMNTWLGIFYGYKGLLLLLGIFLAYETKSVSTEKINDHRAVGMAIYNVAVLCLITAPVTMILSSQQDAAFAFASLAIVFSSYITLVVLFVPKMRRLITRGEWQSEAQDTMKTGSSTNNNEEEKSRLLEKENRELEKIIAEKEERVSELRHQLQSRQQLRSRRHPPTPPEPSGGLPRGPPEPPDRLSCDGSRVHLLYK
# T4 sequence (O75899 42-941 partner): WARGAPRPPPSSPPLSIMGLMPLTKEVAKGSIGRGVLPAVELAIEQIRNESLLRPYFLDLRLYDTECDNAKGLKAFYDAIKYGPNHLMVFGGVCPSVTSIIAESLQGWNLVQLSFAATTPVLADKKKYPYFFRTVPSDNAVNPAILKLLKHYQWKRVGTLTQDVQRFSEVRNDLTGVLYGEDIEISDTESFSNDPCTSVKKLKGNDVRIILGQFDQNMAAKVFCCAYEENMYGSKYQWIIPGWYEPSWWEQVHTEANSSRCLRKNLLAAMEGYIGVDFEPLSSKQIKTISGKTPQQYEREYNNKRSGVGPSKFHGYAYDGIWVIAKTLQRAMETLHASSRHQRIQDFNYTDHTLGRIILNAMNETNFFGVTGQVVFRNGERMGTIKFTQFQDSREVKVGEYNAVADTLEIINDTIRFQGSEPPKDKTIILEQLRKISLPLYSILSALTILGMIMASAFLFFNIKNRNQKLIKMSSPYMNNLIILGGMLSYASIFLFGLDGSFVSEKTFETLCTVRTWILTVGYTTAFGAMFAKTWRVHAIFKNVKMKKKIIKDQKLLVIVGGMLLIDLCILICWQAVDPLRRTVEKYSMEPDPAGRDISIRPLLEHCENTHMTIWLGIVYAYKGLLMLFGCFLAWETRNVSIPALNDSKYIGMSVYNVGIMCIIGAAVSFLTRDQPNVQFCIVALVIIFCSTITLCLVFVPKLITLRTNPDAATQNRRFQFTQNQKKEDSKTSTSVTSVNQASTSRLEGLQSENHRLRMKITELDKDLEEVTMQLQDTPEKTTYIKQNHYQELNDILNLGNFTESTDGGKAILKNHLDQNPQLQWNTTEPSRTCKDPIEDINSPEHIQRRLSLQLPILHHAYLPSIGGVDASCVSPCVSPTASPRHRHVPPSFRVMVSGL
# Experimental: as §1, §2, §3, §4, §5, §6, §7, §8
# [4] = test system: Glutamate (non-selective); test: Radioligand binding inhibition, Glutamate non-selective; conditions: 10 µM; radioligand [^3H]Glutamic acid; mean of duplicate
# Experimental: as §9, §2, §3, §4, §5, §6, §7, §8
# Glutamate (AMPA) = test: Radioligand binding inhibition, Glutamate AMPA; conditions: 10 µM; radioligand [^3H]AMPA; mean of duplicate
# Experimental: as §9, §2, §3, §4, §5, §6, §7, §8
# Glutamate (Ketamine) = test: Radioligand binding inhibition, Glutamate (Ketamine); conditions: 10 µM; radioligand [^3H]Kainic acid; mean of duplicate
# [5] = test system: Glutamate (NMDA agonist site); test: Radioligand binding inhibition, Glutamate NMDA agonist site; conditions: 10 µM; radioligand [^3H]CGP-39653; mean of duplicate
# Experimental: as §9, §2, §3, §4, §5, §6, §7, §8
# [6] = biological target: T5, Glutamate (NMDA glycine site) (Homo sapiens, UniProt Q05586); test: Radioligand binding inhibition, Glutamate NMDA glycine site; conditions: 10 µM; radioligand [^3H]MDL105,519; mean of duplicate
# T5 construct: Sekisui Medical (contract laboratory)
# Experimental: as §9, §2, §3, §4, §5, §6, §7, §8
# Histamine H1 (central) = biological target: T6, Histamine H1 (central) (Homo sapiens, UniProt P35367); format: binding; conditions: 10 µM; radioligand [^3H]Pyrilamine; mean of duplicate
# T6 construct: Sekisui Medical (contract laboratory)
# T6 sequence (P35367 whole entry): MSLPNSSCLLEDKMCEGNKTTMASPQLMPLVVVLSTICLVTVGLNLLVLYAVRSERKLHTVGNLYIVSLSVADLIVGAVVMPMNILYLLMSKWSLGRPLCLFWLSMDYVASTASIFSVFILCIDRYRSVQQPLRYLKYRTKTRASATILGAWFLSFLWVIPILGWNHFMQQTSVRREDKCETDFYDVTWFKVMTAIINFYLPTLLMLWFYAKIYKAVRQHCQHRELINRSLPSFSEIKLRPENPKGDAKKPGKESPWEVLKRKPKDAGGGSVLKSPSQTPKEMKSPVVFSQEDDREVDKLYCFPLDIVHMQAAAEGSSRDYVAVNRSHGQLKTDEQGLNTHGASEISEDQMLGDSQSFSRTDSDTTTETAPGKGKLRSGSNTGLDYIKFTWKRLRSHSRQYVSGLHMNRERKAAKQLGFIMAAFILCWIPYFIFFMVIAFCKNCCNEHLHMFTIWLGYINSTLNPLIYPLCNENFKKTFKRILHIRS
# Histamine H3 = biological target: T7, Histamine H3 (Homo sapiens, UniProt Q9Y5N1); test: Radioligand binding inhibition, Histamine H3; conditions: 10 µM; radioligand [^3H]N-methyl-histamine; mean of duplicate
# T7 construct: Sekisui Medical (contract laboratory)
# T7 sequence (Q9Y5N1 whole entry): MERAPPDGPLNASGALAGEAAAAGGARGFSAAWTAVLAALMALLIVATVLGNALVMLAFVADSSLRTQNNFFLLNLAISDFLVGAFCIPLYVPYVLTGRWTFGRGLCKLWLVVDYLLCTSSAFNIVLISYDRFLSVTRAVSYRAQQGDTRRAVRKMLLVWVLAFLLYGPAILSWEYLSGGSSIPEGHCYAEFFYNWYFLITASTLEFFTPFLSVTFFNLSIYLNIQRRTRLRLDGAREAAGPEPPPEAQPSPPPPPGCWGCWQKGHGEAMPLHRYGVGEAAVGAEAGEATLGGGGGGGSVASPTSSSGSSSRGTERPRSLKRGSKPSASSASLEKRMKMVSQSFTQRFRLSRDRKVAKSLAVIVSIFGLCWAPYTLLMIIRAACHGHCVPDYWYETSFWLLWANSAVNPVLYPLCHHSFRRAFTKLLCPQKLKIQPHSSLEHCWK
# Experimental: as §1, §2, §3, §4, §5, §6, §7, §8
# Muscarinic M1 = biological target: T8, Muscarinic M1 (Homo sapiens, UniProt P11229); format: binding; conditions: 10 µM; radioligand [^3H]Pirenzepine; mean of duplicate
# T8 construct: Sekisui Medical (contract laboratory)
# T8 sequence (P11229 whole entry): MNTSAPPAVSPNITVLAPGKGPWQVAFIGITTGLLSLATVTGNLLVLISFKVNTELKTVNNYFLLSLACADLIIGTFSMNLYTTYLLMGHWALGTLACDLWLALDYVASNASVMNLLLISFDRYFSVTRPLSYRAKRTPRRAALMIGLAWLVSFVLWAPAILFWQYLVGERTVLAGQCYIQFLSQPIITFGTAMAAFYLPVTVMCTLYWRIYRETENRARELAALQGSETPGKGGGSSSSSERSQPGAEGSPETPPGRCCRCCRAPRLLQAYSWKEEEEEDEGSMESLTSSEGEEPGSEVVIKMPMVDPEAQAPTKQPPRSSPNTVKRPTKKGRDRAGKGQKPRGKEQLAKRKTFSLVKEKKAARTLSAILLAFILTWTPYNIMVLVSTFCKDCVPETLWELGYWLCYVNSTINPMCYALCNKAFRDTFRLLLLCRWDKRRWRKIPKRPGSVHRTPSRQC
# Nicotinic (neuronal) = format: binding; conditions: 10 µM; radioligand [^3H]Cytisine; mean of duplicate
# Opiate (non-selective) = test: Radioligand binding inhibition, Opiate; conditions: 10 µM; radioligand [^3H]Naloxone; mean of duplicate
# Experimental: as §9, §2, §3, §4, §5, §6, §7, §8
# Serotonin 5HT1A = biological target: T9, Serotonin 5HT1A (Homo sapiens, UniProt P08908); test: Radioligand binding inhibition, Serotonin 5HT1A; conditions: 10 µM; radioligand [^3H]8-OH DPAT; mean of duplicate
# T9 construct: Sekisui Medical (contract laboratory)
# T9 sequence (P08908 whole entry): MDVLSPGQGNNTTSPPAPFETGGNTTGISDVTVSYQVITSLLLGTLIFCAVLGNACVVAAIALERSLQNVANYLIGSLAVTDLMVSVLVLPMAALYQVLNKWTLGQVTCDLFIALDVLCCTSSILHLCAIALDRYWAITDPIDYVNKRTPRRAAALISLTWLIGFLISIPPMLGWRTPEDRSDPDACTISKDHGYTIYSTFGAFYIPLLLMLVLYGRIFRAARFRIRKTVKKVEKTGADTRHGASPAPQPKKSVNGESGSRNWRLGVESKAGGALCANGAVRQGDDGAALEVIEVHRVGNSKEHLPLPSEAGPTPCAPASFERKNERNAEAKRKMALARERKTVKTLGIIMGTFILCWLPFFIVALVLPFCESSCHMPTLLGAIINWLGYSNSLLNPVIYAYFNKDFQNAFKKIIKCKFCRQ
# Experimental: as §9, §2, §3, §4, §5, §6, §7, §8
# Serotonin 5HT2A = biological target: T10, Serotonin 5HT2A (Homo sapiens, UniProt P28223); test: Radioligand binding inhibition, Serotonin 5HT2A; conditions: 10 µM; radioligand [^3H]Ketanserin; mean of duplicate
# T10 construct: Sekisui Medical (contract laboratory that ran the panel)
# Experimental: as §9, §2, §3, §4, §5, §6, §7, §8
# Serotonin 5HT3 (human) = biological target: T11, Serotonin 5HT3 (human) (Homo sapiens, UniProt P46098); test: Radioligand binding inhibition, Serotonin 5HT3; conditions: 10 µM; radioligand [^3H]GR65630; mean of duplicate
# T11 construct: Sekisui Medical (contract laboratory that ran the panel)
# Experimental: as §9, §2, §3, §4, §5, §6, §7, §8
# Sigma (non-selective) = test: Radioligand binding inhibition and competitive inhibition curve, sigma receptor
# Experimental: as §1
# Data are expressed as mean values of duplicate samples.
# as §2, §3, §4, §5, §6, §7, §8
# [7] = test system: Salmonella typhimurium (TA98, TA100, TA1535, and TA1537); test: Ames test (reverse bacterial mutation test), Salmonella; format: cell-based; conditions: with and without S9 mixture, 78.1–5000 µg/plate
# Excerpt: (§10) The MMP was custom synthesized by the Nard Institute (Kobe, Japan) using methods described previously (Toyohara et al. [2020a]). All other chemical reagents were obtained from commercial sources. Male ddY mice were obtained from Japan SLC (Hamamatsu, Japan). Sprague–Dawley rats [Crl: CD(SD)] were obtained from […] (Yokohama, Japan). Animal studies were approved by the Animal Care and Use Committee of the Tokyo Metropolitan Institute for Geriatrics and Gerontology (Approval Nos. 22,015 and 23,007) and Nihon Bioresearch (Hashima, Japan; Approval Nos. 430,085 and 430,086). Acute toxicity studies were performed under the “Revisions of the Guidelines for Single and Repeated Dose Toxicity Studies” (PMDA, 1993). Ames test was performed under the “Guidance on Genotoxicity Testing and Data Interpretation for Pharmaceuticals Intended for Human Use” (PMDA, 2012).
# (§11) Mutagenicity tests were performed at the Hashima Research Center, Nihon Bioresearch, under non-GLP control. MMP was tested for mutagenicity by the Ames test with four histidine-requiring strains of Salmonella typhimurium (TA98, TA100, TA1535, and TA1537) and one strain of Escherichia coli (WP2uvrA), with and without the S9 mixture, at a dose range of 78.1–5000 µg/plate according to the standard method.
# [8] = test system: Escherichia coli (WP2uvrA); test: Ames test (reverse bacterial mutation test), E. coli; format: cell-based; conditions: with and without S9 mixture, 78.1–5000 µg/plate
# Excerpt: as §10, §11
# T1 sequence (P30542 whole entry): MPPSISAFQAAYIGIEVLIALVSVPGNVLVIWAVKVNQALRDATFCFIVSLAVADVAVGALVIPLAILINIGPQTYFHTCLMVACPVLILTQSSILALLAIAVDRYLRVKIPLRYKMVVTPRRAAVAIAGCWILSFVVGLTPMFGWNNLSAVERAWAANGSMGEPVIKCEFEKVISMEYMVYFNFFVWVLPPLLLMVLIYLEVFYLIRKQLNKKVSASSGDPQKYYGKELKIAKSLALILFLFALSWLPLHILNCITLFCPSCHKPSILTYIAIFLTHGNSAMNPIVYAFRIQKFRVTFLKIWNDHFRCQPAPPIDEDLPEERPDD
compound,measurement,setting,value
"Cc1ccc(CC(C)NC(C)C)cc1 (centres unmarked) [MMP, N-isopropyl-p-methylamphetamine]",Inhibition ratio (%),Adenosine A1,3.26%
same,Inhibition ratio (%),Adenosine A2,1.64%
same,Inhibition ratio (%),[1],44.47%
same,Inhibition ratio (%),[2],42.47%
same,Inhibition ratio (%),[3],32.80%
same,Inhibition ratio (%),Dopamine D1,6.90%
same,Inhibition ratio (%),GABA A (BZ central),2.17%
same,Inhibition ratio (%),GABA B,1.59%
same,Inhibition ratio (%),[4],0.00%
same,Inhibition ratio (%),Glutamate (AMPA),5.98%
same,Inhibition ratio (%),Glutamate (Ketamine),11.86%
same,Inhibition ratio (%),[5],4.63%
same,Inhibition ratio (%),[6],0.22%
same,Inhibition ratio (%),Histamine H1 (central),11.97%
same,Inhibition ratio (%),Histamine H3,3.82%
same,Inhibition ratio (%),Muscarinic M1,27.81%
same,Inhibition ratio (%),Nicotinic (neuronal),0.00%
same,Inhibition ratio (%),Opiate (non-selective),4.92%
same,Inhibition ratio (%),Serotonin 5HT1A,15.84%
same,Inhibition ratio (%),Serotonin 5HT2A,24.12%
same,Inhibition ratio (%),Serotonin 5HT3 (human),0.91%
same,Inhibition ratio (%),"Sigma (non-selective); 10 µM, radioligand [^3H]DTG, mean of duplicate",86% and 85.89%
same,IC50,"Sigma (non-selective); competitive inhibition curve, [^3H]DTG, duplicate",1100 nM
same,affinity for sigma receptor relative to existing sigma receptor ligand (haloperidol),Sigma (non-selective); fraction of the affinity of haloperidol,approximately 1/100
same,mutagenic activity,[7],no mutagenic activity
same,mutagenic activity,[8],no mutagenic activity
